Reference: US20200038398A1, “COMBINATION THERAPY WITH GLUTAMINASE INHIBITORS” (Calithera Biosciences, Inc., priority 2017, published 2020)
Like-named read-outs stand apart in the source and are kept apart here.

Assays:
[1] = test system: MCF-7 breast adenocarcinoma cells; assay: MCF-7 xenograft, CB-839 and palbociclib; assay type: in vivo; settings: combination CB-839 200 mg/kg PO BID and palbociclib orally once daily; scid/bg mice; FIG. 2b
Description: Female scid/bg mice were implanted subcutaneously with 17B-estradiol sustained release pellets on Day −1. The following day mice were implanted subcutaneously with 5×10^6 MCF-7 breast adenocarcinoma cells mixed 1:1 with matrigel. On Day 7 post-implant, mice were randomized into groups of n=10/group to receive the following: 1) Vehicle (25% hydroxypropyl-B-cyclodextrin) orally BID; 2) CB-839 at 200 mg/kg orally BID; 3) Palbociclib at 50 mg/kg orally once daily; or 4) CB-839 at 200 mg/kg PO BID and Palbociclib orally once daily. Tumors were measured with calipers three times per week and tumor volume calculated using the formula tumor volume (mm^3)=(a×b^2/2) where ‘b’ is the smallest diameter and ‘a’ is the largest perpendicular diameter. ****P<0.0001 (ANOVA) versus both monotherapies.

[2] = test system: UWB1.289 ovarian cancer cell lines; assay: Combination cell viability (CellTiter-Glo), CB-839 with niraparib; assay type: cell-based; settings: FIG. 3a; combination with PARP inhibitor niraparib, various concentrations of CB-839, 6 days
Description: (§1) Cells were treated with a dose titration of either CB-839, an anti-cancer agent, or a mixture thereof for 72 hours (for palbociclib or talazoparib) or 6 days (for niraparib) in growth media. At the end of the incubation, cell viability was measured using CellTiter-Glo as per manufacturer's protocol (Promega, Madison, Wis.). Cell proliferation for all compound treatments is represented with bar graphs, where luminescent output, Relative Light Units (RLU), correlates with viable cell number. Combination indices were calculated using CalcuSyn software (biosoft.com) and reported for individual mixtures of CB-839 and each agent.

[3] = test system: estrogen receptor positive (ER+) breast cancer; assay: Combination cell viability (CellTiter-Glo), CB-839 with palbociclib; assay type: cell-based; settings: FIG. 2a; combination with CDK 4/6 inhibitor palbociclib, various concentrations of CB-839, 72 hours
Description: as §1

[4] = test system: HCC1569 (breast) cancer cell lines; assay: as above; assay type: cell-based; settings: FIG. 1a; combination with CDK 4/6 inhibitor palbociclib, various concentrations of CB-839, 72 hours
Description: as §1

[5] = test system: HCC1395 breast cancer cell lines; assay: Combination cell viability (CellTiter-Glo), CB-839 with talazoparib; assay type: cell-based; settings: FIG. 3b; combination with PARP inhibitor talazoparib, various concentrations of CB-839, 72 hours
Description: as §1

[6] = test system: H1975 lung cancer cell lines; assay: Combination cell viability (CellTiter-Glo), CB-839 with osimertinib; assay type: cell-based; settings: FIG. 4b, various concentrations of CB-839, 72 hours
Description: as §1, with “agent, osimertinib alone” for “agent,”, “of CB-839 and osimertinib” for “thereof”, “hours” for “hours (for palbociclib or talazoparib) or 6 days (for niraparib)”, “relative” for “viable”, “osimertinib.” for “each agent.”

[7] = test system: HCC827 lung cancer cell lines; assay: as above; assay type: cell-based; settings: FIG. 4a, various concentrations of CB-839, 72 hours
Description: as §1, with “agent, osimertinib alone” for “agent,”, “of CB-839 and osimertinib” for “thereof”, “hours” for “hours (for palbociclib or talazoparib) or 6 days (for niraparib)”, “relative” for “viable”, “osimertinib.” for “each agent.”

[8] = test system: P493-6 (myc “on”) cells; assay: Cell Proliferation Assay; assay type: cell-based; settings: 72 hrs incubation
Description: P493-6 (myc “on”) cells were maintained in growth media (RPMI-1640, 10% FBS, 2 mM glutamine, 100 units/ml Penicillin and 100 μg/ml streptomycin) at 37° C. with 5% CO2. For compound assay, P493-6 cells were plated in 96-well V-bottom plates on the day of compound addition in 50 μl of growth media at a cell density of 200,000 cells/ml (10,000 cells/well). Compounds were serially diluted in 100% DMSO at 200-times the final concentration. Compounds were diluted 100-fold into growth media and then 50 μl of this mixture was added to cell plates making the final concentration of DMSO 0.5%. Cells were incubated with compound for 72 hrs at 37° C. with 5% CO2 and analyzed for antiproliferative effects either by Cell Titer Glo (Promega) or FACS analysis using the Viacount (Millipore) kit on the Guava instrument.

Structure (SMILES): O=C(Cc1cccc(OC(F)(F)F)c1)Nc1ccc(CCCCc2nnc(NC(=O)Cc3ccccn3)s2)nn1 [CB-839]
- tumor volume, P (ANOVA) versus both monotherapies [1]: < 0.0001
- synergy between CB-839 and niraparib [2]: synergy
- synergy between CB-839 and palbociclib [3]: synergy
- synergy between CB-839 and palbociclib [4]: synergy
- synergy between CB-839 and talazoparib [5]: synergy
- synergy between CB-839 and osimertinib [6]: synergy
- synergy between CB-839 and osimertinib [7]: synergy

Structure (SMILES): [2H]C([2H])(CCc1nnc(NC(=O)Cc2ccccn2)s1)C([2H])([2H])c1ccc(NC(=O)Cc2cccc(OC(F)(F)F)c2)nn1 [Compound 727]
- IC50 ([8]; read-out: Cell prolif P493 72h IC50): 12 nM

Structure (SMILES): [2H]C([2H])(CCc1nnc(N)s1)C([2H])([2H])c1ccc(NC(=O)Cc2cccc(OC(F)(F)F)c2)nn1 [Compound 726]
- IC50 ([8]; P493-6, read-out: Cell prolif P493 72h IC50): 610 nM
